Measured values: patent US20230038929A1, “Fused Tricyclic Heterocyclic Compounds and Uses Thereof” (Verge Analytics, Inc., priority 2019, published 2023)
Counter-ions that a name gives are not always drawn.

How the values were obtained:
[1] = target: T1, Full length human recombinant PIKFYVE (Homo sapiens, UniProt Q9Y2I7, L932S/Q1183K/Q995L/S1033A/S696N/T998S); test: Inhibition of PIKfyve (microfluidic electrophoresis kinase assay); assay type: biochemical; settings: 2 nM enzyme, 1 μM PI3P, 3 h at room temperature, 12 concentrations; read-out: PIKfyve IC50
T1 construct: Full length human recombinant PIKFYVE; purchased Carna Biosciences (Kobe, Japan); host or cells: baculovirus expression system (insect cells)
Procedure: Biological Example 1: Inhibition of PIKfyve
Full length human recombinant PIKFYVE expressed in baculovirus expression system as N-terminal GST-fusion protein (265 kDa) was obtained from Carna Biosciences (Kobe, Japan). The kinase substrate was prepared by mixing and sonicating fluorescently-labeled phosphatidylinositol 3-phosphate (PI3P) with phospho-L-serine (PS) at a 1:10 ratio in 50 mM HEPES buffer pH7.5.
The kinase reactions were assembled in 384-well plates (Greiner) in a total volume of […] as follows. Kinase protein was pre-diluted in an assay buffer comprising 25 mM HEPES, pH 7.5, 1 mM DTT, 2.5 mM MgCl2, and 2.5 mM MnCl2, and 0.005% Triton X-100, and dispensed into a 384-well plate (10 μL per well). Test compounds were serially pre-diluted in DMSO and added to the protein samples by acoustic dispensing (Labcyte Echo). The concentration of DMSO was equalized to 1% in all samples. All test compounds were tested at 12 concentrations. Apilimod was used as a reference compound and was tested in identical manner in each assay plate. Control samples (0%-inhibition, in the absence of inhibitor, DMSO only) and 100%-inhibition (in the absence of enzyme) were assembled in replicates of four and were used to calculate %-inhibition in the presence of compounds. The reactions were initiated by addition of 10 μL of 2× PI3P/PS substrate supplemented with ATP. The final concentration of enzyme was 2 nM, the final concentration of ATP was […], and the final concentration of PI3P/PS substrate was 1 μM (PI3P). The kinase reactions were allowed to proceed for 3 h at room temperature. Following incubation, the reactions were quenched by addition of […] of termination buffer (100 mM HEPES, pH 7.5, 0.01% Triton X-100, 20 mM EDTA). Terminated plates were analyzed on a microfluidic electrophoresis instrument (Caliper LabChip® 3000, Caliper Life Sciences/Perkin Elmer). The change in the relative fluorescence intensity of the PI(3)P substrate and PI(3,5)P product peaks was measured. The activity in each test sample was determined as the product to sum ratio (PSR): P/(S+P), where P is the peak height of the product, and S is the peak height of the substrate. Percent inhibition (Pinh) was determined using the following equation:
Pinh=(PSR0%inh−PSRcompound)/(PSR0%inh−P100%inh)*100
in which PSRcompound is the product/sum ratio in the presence of compound, PSR0%inh is the product/sum ratio in the absence of compound, and the PSR100%inh is the product/sum ratio in the absence of the enzyme. To determine the ICso of test compounds (50%-inhibition) the %-inh cdata (Pinh versus compound concentration) were fitted by a four-parameter sigmoid dose-response model using XLfit software (IDBS).

PI3Kα (p110α/p85α) = target: T2, PI3Kα (p110α/p85α) (Homo sapiens, UniProt P42336); assay type: biochemical; settings: 0.5 nM enzyme, ATP 90 μM, 1 μM PIP2, 3 h room temperature; read-out: PI3Kα IC50
T2 construct: Full-length N-terminal; FLAG (N); host or cells: SF9 cells (baculovirus)

PI3Kδ (p110δ/p85α) = target: T3, PI3Kδ (p110δ/p85α) (Homo sapiens, UniProt O00329); assay type: biochemical; settings: 0.25 nM enzyme, ATP 90 μM, 1 μM PIP2, 3 h room temperature; read-out: PI3Kδ IC50
T3 construct: Full-length N-terminal GST-; GST (N); host or cells: SF9 cells (baculovirus)

[2] = system: ALS patient (SOD1 A4V) iPSC derived motor neurons; test: iPSC MN Survival assay (IPSC-SOD1); assay type: cell-based, human; settings: nutrient deprived media (HBSS), six days, maximal reduction in hazard ratio, <1.0 increased survival
Procedure: Biological Example 4: iPSC MN Survival assay
Fibroblasts from ALS patients with known SOD1 A4V mutation were reprogrammed into inducible pluripotent stem cells (iPSC) and then differentiated to motor neurons. In culture, ALS patient derived motor neurons show increased death rate compared to motor neurons derived from healthy individuals in a stressed condition (nutrient deprived media, Hank's buffered salt solution—HBSS). […] Cell rescue was measured following more than two different concentrations of each compound for six days with greater than four replicates in a 96-well format to ensure studies with power >0.8. Cells are transduced with a GFP reporter and imaged once a day to track survival. A broad-spectrum caspase inhibitor served as the positive control.
Microscopy image-based readout: Cells are transduced with a GFP reporter and imaged once a day with a blue laser to track survival. Imagers used include the Biotek Cytation 5 and Thermo Fisher EVOS Auto FL 2. All Images undergo uniform processing consisting of rolling hat background subtraction and contrast adjustment. Microscopy images are analyzed using software proprietary to Verge. Cells are identified by their shape and each cell is tracked across images and time points for each well. Survival is visually assessed from the Kaplan-Meier curves. Survival of the cells is modeled and tested using a mixed effects Cox regression where each well is modeled as the random effect, and the group (control/treatment) as the fixed effect. […]. Data are presented in Table 7 as the maximal reduction in hazard ratio scores measured at various concentrations.

PI3Kβ (p110β/p85α) = target: T4, PI3Kβ (p110β/p85α) (Homo sapiens, UniProt P42338); assay type: biochemical; settings: 1 nM enzyme, ATP 60 μM, 1 μM PIP2, 3 h room temperature; read-out: PI3Kβ IC50
T4 construct: Full-length N-terminal GST-; GST (N); host or cells: SF9 cells (baculovirus)

IPSC-C9 motor neurons = test: iPSC MN Survival assay (IPSC-C9); assay type: cell-based, human; settings: maximal reduction in hazard ratio vs control at various concentrations; <1.0 increased survival, >1.0 decreased survival

T2 sequence (P42336 whole entry): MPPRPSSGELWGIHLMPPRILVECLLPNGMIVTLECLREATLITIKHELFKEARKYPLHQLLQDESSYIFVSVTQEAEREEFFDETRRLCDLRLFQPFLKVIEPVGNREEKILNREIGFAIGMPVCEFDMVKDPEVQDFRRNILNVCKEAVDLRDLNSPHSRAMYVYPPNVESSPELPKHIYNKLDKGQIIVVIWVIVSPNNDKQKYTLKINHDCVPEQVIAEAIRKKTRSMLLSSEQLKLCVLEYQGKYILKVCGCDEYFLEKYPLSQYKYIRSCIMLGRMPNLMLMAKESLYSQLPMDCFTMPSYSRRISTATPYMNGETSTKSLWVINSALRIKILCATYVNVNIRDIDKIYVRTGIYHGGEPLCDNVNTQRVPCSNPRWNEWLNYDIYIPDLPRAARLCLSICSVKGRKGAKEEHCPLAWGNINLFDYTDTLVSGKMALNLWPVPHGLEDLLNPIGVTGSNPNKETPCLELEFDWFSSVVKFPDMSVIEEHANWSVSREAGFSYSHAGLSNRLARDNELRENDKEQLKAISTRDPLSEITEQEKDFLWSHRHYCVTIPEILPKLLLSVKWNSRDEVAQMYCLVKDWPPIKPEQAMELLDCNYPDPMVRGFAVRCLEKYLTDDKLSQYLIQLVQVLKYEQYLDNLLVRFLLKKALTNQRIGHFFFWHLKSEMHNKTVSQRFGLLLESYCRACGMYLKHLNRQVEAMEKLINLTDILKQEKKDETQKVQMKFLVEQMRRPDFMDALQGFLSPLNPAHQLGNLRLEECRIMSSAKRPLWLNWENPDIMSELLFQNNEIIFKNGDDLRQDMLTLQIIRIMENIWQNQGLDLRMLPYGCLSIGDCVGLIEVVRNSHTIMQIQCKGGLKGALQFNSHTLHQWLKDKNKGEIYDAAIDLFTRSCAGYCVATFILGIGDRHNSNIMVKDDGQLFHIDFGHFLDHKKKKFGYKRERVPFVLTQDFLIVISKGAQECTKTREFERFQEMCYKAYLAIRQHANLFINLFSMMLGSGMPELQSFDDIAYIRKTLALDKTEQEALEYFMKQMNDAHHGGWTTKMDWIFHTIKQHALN
T2 sequence (P27986 whole entry, further chain): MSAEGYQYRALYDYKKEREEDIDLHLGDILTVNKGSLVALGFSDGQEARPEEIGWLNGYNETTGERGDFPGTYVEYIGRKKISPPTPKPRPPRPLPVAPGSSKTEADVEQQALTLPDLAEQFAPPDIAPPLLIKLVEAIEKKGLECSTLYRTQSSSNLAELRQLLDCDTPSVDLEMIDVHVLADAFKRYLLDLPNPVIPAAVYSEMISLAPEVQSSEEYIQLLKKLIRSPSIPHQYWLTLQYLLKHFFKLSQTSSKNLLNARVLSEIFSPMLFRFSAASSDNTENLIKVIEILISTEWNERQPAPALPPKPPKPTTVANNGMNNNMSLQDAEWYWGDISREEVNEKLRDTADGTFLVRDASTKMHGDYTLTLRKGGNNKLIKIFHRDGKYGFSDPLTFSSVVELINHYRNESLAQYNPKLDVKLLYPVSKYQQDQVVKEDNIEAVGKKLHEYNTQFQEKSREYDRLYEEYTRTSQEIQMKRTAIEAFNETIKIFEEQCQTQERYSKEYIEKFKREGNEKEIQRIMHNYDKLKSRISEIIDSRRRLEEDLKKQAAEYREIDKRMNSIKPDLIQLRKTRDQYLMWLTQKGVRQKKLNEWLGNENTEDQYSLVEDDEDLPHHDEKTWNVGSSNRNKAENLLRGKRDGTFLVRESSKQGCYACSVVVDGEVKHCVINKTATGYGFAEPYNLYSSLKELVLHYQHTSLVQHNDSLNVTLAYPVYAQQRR
T4 sequence (P42338 whole entry): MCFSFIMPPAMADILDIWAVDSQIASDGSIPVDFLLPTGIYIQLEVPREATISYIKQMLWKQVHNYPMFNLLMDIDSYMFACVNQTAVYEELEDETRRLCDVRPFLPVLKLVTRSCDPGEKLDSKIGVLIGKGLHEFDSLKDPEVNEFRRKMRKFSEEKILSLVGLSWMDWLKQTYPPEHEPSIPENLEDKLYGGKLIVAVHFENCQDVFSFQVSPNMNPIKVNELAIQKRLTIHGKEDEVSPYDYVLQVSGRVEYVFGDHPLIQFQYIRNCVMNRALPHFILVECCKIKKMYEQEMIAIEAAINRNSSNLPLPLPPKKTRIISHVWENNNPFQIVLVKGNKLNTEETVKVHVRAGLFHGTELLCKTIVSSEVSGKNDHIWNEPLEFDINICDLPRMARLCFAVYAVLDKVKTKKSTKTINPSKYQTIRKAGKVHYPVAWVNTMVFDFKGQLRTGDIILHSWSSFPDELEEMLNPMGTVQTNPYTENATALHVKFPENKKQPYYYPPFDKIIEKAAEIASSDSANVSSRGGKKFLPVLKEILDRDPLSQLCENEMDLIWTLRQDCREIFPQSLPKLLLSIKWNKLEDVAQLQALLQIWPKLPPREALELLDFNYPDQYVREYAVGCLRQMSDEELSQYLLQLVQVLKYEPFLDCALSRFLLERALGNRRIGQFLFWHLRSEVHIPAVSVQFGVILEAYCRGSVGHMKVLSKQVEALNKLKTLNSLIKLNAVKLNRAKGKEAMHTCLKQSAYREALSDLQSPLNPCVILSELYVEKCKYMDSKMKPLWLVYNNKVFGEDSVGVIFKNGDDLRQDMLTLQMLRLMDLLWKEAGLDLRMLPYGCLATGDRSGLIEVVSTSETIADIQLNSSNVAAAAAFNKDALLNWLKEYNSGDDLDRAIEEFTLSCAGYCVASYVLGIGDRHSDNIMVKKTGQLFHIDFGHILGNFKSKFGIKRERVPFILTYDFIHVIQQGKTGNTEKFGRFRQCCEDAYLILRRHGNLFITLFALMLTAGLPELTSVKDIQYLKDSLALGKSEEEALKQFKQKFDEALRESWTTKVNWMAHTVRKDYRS
T4 sequence (P27986 whole entry, further chain): as the sequence (P27986 whole entry, further chain) above
T3 sequence (O00329 whole entry): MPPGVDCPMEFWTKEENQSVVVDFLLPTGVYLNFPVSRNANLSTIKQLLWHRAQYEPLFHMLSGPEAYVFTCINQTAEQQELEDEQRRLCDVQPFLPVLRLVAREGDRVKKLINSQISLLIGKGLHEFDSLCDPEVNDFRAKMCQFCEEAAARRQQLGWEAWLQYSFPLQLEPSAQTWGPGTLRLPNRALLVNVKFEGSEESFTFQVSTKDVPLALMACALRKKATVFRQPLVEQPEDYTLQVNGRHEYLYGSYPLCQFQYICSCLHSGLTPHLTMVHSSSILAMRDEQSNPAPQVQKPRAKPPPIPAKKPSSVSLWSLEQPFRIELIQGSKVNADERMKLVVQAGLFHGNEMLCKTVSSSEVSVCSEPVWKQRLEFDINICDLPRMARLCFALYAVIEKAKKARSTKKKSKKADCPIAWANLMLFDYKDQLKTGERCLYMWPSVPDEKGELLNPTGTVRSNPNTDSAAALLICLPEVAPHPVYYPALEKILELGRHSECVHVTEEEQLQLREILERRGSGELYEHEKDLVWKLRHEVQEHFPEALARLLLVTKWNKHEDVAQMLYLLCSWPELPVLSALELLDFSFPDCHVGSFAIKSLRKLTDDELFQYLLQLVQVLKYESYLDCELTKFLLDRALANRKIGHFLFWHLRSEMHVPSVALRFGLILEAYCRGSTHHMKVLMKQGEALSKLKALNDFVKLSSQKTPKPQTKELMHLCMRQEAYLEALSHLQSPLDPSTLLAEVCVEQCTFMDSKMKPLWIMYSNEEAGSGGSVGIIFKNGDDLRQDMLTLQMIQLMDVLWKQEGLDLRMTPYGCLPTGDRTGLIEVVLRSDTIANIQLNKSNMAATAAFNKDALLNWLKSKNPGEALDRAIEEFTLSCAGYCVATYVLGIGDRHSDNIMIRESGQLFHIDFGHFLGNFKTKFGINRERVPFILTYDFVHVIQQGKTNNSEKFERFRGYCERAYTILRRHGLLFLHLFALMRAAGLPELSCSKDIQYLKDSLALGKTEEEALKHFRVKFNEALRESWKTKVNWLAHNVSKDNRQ
T3 sequence (P27986 whole entry, further chain): as the sequence (P27986 whole entry, further chain) above

Row | SMILES | IC50 [1] | IC50 (PI3Kα (p110α/p85α)) | IC50 (PI3Kδ (p110δ/p85α)) | IPSC-SOD1 (Hazard Ratio) [2] | IC50 (PI3Kβ (p110β/p85α)) | IPSC-C9 (Hazard Ratio) (IPSC-C9 motor neurons)
1 | Cc1cc(N(C)c2nc(N3CCOCC3)c3oc4ncccc4c3n2)nn1C [Example 11, N-(1,5-Dimethyl-1H-pyrazol-3-yl)-N-methyl-4-morpholinopyrido[3′,2′:4,5]furo[3,2-d]pyrimidin-2-amine] | > 10000 nM | 244 nM | 278 nM | 1.1 | 7030 nM | 0.99
2 | c1cnc2oc3c(N4CCOCC4)nc(Nc4cc(-c5ccncc5)n[nH]4)nc3c2c1 [Example 10, 4-Morpholino-N-(3-(pyridin-4-yl)-1H-pyrazol-5-yl)pyrido[3′,2′:4,5]furo[3,2-d]pyrimidin-2-amine] | 185 nM | 117 nM | 37 nM | 1.04 | 1310 nM | 0.96
3 | Cl.c1cnc2oc3c(N4CCOCC4)nc(Nc4cc(-c5ccsc5)n[nH]4)nc3c2c1 [Example 61, 4-morpholino-N-(3-(thiophen-3-yl)-1H-pyrazol-5-yl)pyrido[3′,2′:4,5]furo[3,2-d]pyrimidin-2-amine hydrochloride] | 26 nM |  |  |  |  | 0.542
4 | c1ccc(-c2cc(Nc3nc(N4CCOCC4)c4oc5ncccc5c4n3)[nH]n2)cc1 [Example 9, 4-Morpholino-N-(3-phenyl-1H-pyrazol-5-yl)pyrido[3′,2′:4,5]furo[3,2-d]pyrimidin-2-amine] | 23 nM | 144 nM | 75 nM | 0.81 | > 10000 nM | 0.65
5 | Cc1cc(Nc2nc(N3CCOCC3)c3oc4ncccc4c3n2)nn1C [Example 47, N-(1,5-dimethyl-1H-pyrazol-3-yl)-4-morpholinopyrido[3′,2′:4,5]furo[3,2-d]pyrimidin-2-amine] | 4320 nM | 82 nM | 54 nM | 1.1 | 2630 nM | 
6 | c1cnc2oc3c(N4CCOCC4)nc(Nc4cncnc4)nc3c2c1 [Example 43, 4-morpholino-N-(pyrimidin-5-yl)pyrido[3′,2′:4,5]furo[3,2-d]pyrimidin-2-amine] | > 10000 nM |  |  | 1.1 |  | 1.06
7 | Cc1cccc(-c2cc(Nc3nc(N4CCOCC4)c4oc5ncccc5c4n3)[nH]n2)c1 [Example 49, 4-morpholino-N-(3-(m-tolyl)-1H-pyrazol-5-yl)pyrido[3′,2′:4,5]furo[3,2-d]pyrimidin-2-amine] | 38 nM |  |  | 1.03 |  | 1.2
8 | c1ccc(-c2cc(Nc3nc(N4CCOCC4)c4oc5ncc(CCN6CCCC6)cc5c4n3)[nH]n2)cc1 [Example 14, 4-Morpholino-N-(3-phenyl-1H-pyrazol-5-yl)-8-(2-(pyrrolidin-1-yl)ethyl)pyrido[3′,2′:4,5]furo[3,2-d]pyrimidin-2-amine] | 2320 nM |  |  | 0.96 |  | 0.9
9 | c1ccc(Nc2nc(N3CCOCC3)c3oc4ncccc4c3n2)cc1 [Example 37, 4-morpholino-N-phenylpyrido[3′,2′:4,5]furo[3,2-d]pyrimidin-2-amine] | 439 nM | 67 nM | 41 nM | 1.03 | 1040 nM | 0.99
10 | c1cnc2oc3c(N4CCOCC4)nc(Nc4cc(CC5CCC5)n[nH]4)nc3c2c1 [Example 56, N-(3-(cyclobutylmethyl)-1H-pyrazol-5-yl)-4-morpholinopyrido[3′,2′:4,5]furo[3,2-d]pyrimidin-2-amine hydrochloride] | 1790 nM | 47 nM | 24 nM |  | 937 nM | 
